# Measured values taken from article PMC12864978, “Covalent modification of a glutamic acid inspired by HaloTag technology” (Nature Communications, 2026).
# “Also recorded” adds a separate entry of the source.
# Tests used:
# [1] = GSH adduct formation (stability in the presence of GSH); format: physicochemical; conditions: phosphate buffer with 10 mM GSH; 10-fold excess of GSH at 10 mM, phosphate buffer pH 7.4, 37 °C; read-out: half-life for GSH adduct formation t1/2 GSH (converted)
# Protocol: Compound (1 mM) was incubated with the respective buffers (HEPES 20 mM, 150 mM NaCl, pH = 7.5; 0.2 M sodium acetate buffer, pH = 5.6; 0.2 M sodium citrate buffer, pH = 6.2; 0.2 M potassium phosphate buffer, pH = 7.4, 1 mM EDTA, with or without 10 mM GSH), with 1% DMSO adjusted for all conditions. […] Per cent (%) compound remaining in the solution was estimated by the ratio of areas under the curve, and data plotted were fitted to pseudo-1st kinetics in the calculation of rate constants (k) and half-lives (t1/2), where k is the negative slope of a linear regression of In (% compound remaining) over time. Half-lives (t1/2) in respective buffers and half-lives for GSH adduct formation (t1/2 GSH) were calculated with the following equations:1 t1/2=In2/k 2 kGSH=ktotalconsumptioninphosphatebufferinpresenceofGSH−k(phosphatebufferinabsenceofGSH) 3 t1/2GSH=In2/k(GSH) […]
# a, Percentage (%) of compound remaining was monitored by HPLC-MS and data was fitted to pseudo-first kinetics in calculation of rate constants (k) and half-lives (t1/2) in respective buffers, where k is the negative slope of a linear regression of In (% compound remaining) over time and t 1/2 = In2/k. Initial […]
# Initial GSH concentration =
# [2] = tested on: DNA in Jurkat cells; experiment: Comet assay (DNA alkylation); conditions: 10 µM
# Protocol: assay.5 % DNA in tail was estimated OpenComet (v1.3) plugin in Image J. Jurkat cells were treated
# 30 min before subjecting to single -cell gel electrophoresis. Data were plotted as mean ± s.d.,
# [3] = tested on: panel of human cell lines; experiment: Cytotoxicity screening in a panel of human cell lines; format: cell-based; conditions: concentrations up to 25 µM
# Protocol: Real-time cell analysis (RTCA) was conducted using an Incucyte S3 live-cell analysis system (Sartorius AG, Germany). Adherent cell lines were seeded at 5 × 10³ cells per well in 96-well plates containing 100 µl of culture medium and incubated overnight at 37 °C with 5% CO₂. Following attachment overnight, the medium was replaced with fresh medium containing test compounds, with all conditions adjusted to contain 0.5% DMSO. […] Phase-contrast images (2 images per well) were automatically captured at 2-h intervals until control wells (DMSO-treated) reached full confluency. Cell growth was quantified using the instrument’s integrated Basic Analyser module by applying a confluence mask to calculate the percentage of phase area confluence. For dose-response assessment, confluence values at 72 h post-treatment were normalised to the DMSO control and analysed using GraphPad Prism 9.5.1 (GraphPad Software, USA). Dose-response curves were generated and fitted via four-parameter variable slope nonlinear regression to determine cellular IC₅₀ values.
# representative of biological replicates n = 3.
# comet images for each condition were shown.
# time live-cell imaging by Incucyte.
# Source data are provided as […]
# [4] = tested on: mTORC1 substrate S6P in PA-TU-8902 cells; conditions: 10 µM
# Protocol: (§1) Relative band intensities were quantified using Image Lab (BIO-RAD).
# Cells were treated with 10 µM
# Cells were then washed twice
# [5] = target: T1, PDEδ in Jurkat cell lysates (Homo sapiens, UniProt O43924); experiment: In-lysate CETSA (immunoblot readout); format: binding; design: host or cells: Jurkat
# T1 sequence (O43924 whole entry): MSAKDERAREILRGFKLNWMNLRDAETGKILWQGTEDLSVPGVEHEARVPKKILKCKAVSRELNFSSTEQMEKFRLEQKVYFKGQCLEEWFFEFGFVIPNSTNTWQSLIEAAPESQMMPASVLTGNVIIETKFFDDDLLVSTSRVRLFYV
# Protocol: A 100 ml aliquot of the suspension was divided equally into two Falcon tubes and chilled on ice for 2 min. Cells were pelleted by centrifugation at 350×g for 3 min at room temperature. After discarding the supernatant, the combined pellet was resuspended in 25 ml of ice-cold PBS buffer. The washing step-centrifugation at 350×g for 2 min at room temperature, followed by supernatant removal-was further repeated twice. […] The resulting lysate was separated by ultracentrifugation at 100,000×g for 20 min at 4 °C (Beckman Coulter Optima MAX-XP, MLA-80 rotor). The supernatant was carefully collected, snap-frozen in liquid nitrogen, and stored at -80 °C for subsequent analysis. Protein concentration was quantified using the Bradford protein assay. […] Following incubation, each aliquot was further subdivided into nine 120 μl portions in PCR tubes. […] For analysis, 75 μl of each supernatant was allocated for mass spectrometry-based thermal protein profiling (TPP), while the remaining 25 μl was used for immunoblotting to assess PDEδ levels. […] DMSO alone. […] Following incubation, each aliquot was further subdivided into nine 120 μl portions in PCR tubes. […] Mass spectrometry-based readout of CETSA For the mass spectrometry-based readout samples were reduced, alkylated, precipitated with acetone and tryptic digested. […]
# [6] = target: T1, PDEδ in Jurkat cell lysates; experiment: In-lysate covalent modification of PDEδ (anti-PDEδ immunoblot band shift)
# Text: as §1
# [7] = target: T2, PDEδ in the presence of Arl2•GppNHp (Homo sapiens, UniProt O43924); experiment: Kinetics of covalent modification of PDEδ by MALDI in the presence of Arl2•GppNHp; format: binding; conditions: PDEδ: Arl2•GppNHp = 1:1, 3 eq. of 6a
# T2 construct: His tag; made in house; host or cells: Escherichia coli Rosetta (BL21DE3), pET plasmids
# T2 sequence (O43924 whole entry): as above
# Text: Data are presented as mean ± s.e.m.
# The solution was briefly centrifuged before a sample was taken at the designated time for analysis by MALDI. […] Mass spectra were obtained over the m/z range 15,000–25,000 using a Bruker UltrafleXtreme XIAL DI-TOF/TOF mass spectrometer. Percentages of covalent adduct formation were estimated by the relative intensity of the respective peaks in MALDI spectra.
# [8] = target: PDEδ (Homo sapiens, UniProt O43924); experiment: Mass spectrometry analysis of PDEδ adducts after Glu-C digestion; format: binding; design: His tag; made in house; host or cells: Escherichia coli Rosetta (BL21DE3), pET plasmids; conditions: LC-MS/MS, 10:1 compound to protein
# PDEδ, sequence (O43924 whole entry): as above
# Protocol: For each replicate, 1.5 µg covalent adduct of PDEδ sample in PBS buffer was denatured, reduced, alkylated and digested by Glu-C and desalted, together with a negative control of unbound vehicle-treated PDEδ sample prior to mass spectrometry analysis. […] The final mixture containing 6.5 M guanidine hydrochloride was heated at 95 °C for 15 min. Subsequently, after cooling, 0.5 µl of a 50 mM dithiothreitol (DTT, cas 3483-12-3, Gerbu Biotechnik, #1008-100 g) solution was added. […] . Samples were incubated at 37 °C overnight with shaking at 400 rpm, protected from light. […] Desalting was carried out with stage tips with C18 extraction discs (Empore^TM high performance extraction discs, 47 mm, 3 M Bioanalytical Technologies #2215). Each stage tip, which consists of two stacked layers of C18 discs, was activated with methanol (100 µl), washed once with buffer B (100 µl, 0.1% formic acid, 80% acetonitrile), and twice with buffer A (100 µl/time, 0.1% formic acid). After sample loading and washing with buffer A once, the desalted sample was eluted with buffer B (20 µl/sample) and centrifuged at 500×g at room temperature for 5 min. Eluted samples were then dried in a SpeedVac at 30 °C.
# Data evaluation was performed using MaxQuant software (v.2.2.0.0)[52]. […] Cleavages by Glu-C were analysed based on the enzyme that was used for digestion. […]
compound,measurement,setting,value
Cc1ccc(-n2nc3c(=O)n(CCCCS(=O)(=O)N(CCc4cccc(CCBr)c4)CC4CCNCC4)nc(C)c3c2C)cc1 [6a],half-life at 1 mM,[1],43.1 days
same,off-target effects such as DNA alkylation (Comet assay),[2],not observed
same,general cytotoxicity,[3],no general toxicity; also recorded: not observed
same,S6P phosphorylation,[4],reduced S6P phosphorylation in a time-dependent manner
same,ΔTm at 10 µM,[5]; 15 min at 37 °C,11.8 ± 0.2 °C
same,ΔTm at 10 µM,[5]; 2 h at 37 °C,22.1 ± 1 °C
same,in-lysate covalent modification of PDEδ on anti-PDEδ immunoblot,[6]; 10 µM for 2 h,upward shift of the band indicates covalent binding
same,Estimated % PDEδ labelling,"[6]; 10 µM, 15 min",33%
same,Estimated % PDEδ labelling,"[6]; 10 µM, 15 min, listed as DeltaTag",approximately 33%
same,Estimated % PDEδ labelling,"[6]; 10 µM, 30 min",55%
same,Estimated % PDEδ labelling,"[6]; 10 µM, 60 min",60%
same,time to estimated full labelling of PDEδ,"[6]; 50 µg cell lysates, 10 µM",≤ 2 h
same,rate of covalent PDEδ modification in the presence of Arl2•GppNHp,[7],comparable rate
same,site of covalent modification in PDEδ,[8],either at p.E88 or p.E89
